Measurements from patent US20050113450A1, “Antibacterial agents” (priority 2002, published 2005).
Converted amounts (≈) assume the structure as drawn.

tested on: SA 9218; assay: MIC by standard agar dilution method; type: cell-based; conditions: Mueller Hinton agar, 10^4 to 10^5 cells per spot, incubated overnight at 35° C., lowest concentration that inhibits visible growth
From the text: The antibacterial agents of this invention have useful activity against a variety of organisms. The in vitro activity of compounds of this invention can be assessed by standard testing procedures such as the determination of minimum inhibitory concentration (MIC) by agar dilution as described in “Approved Standard. Methods for Dilution Antimicrobial Susceptibility Tests for Bacteria That Grow Aerobically”, 3rd. ed., published 1993 by the National Committee for Clinical Laboratory Standards, Villanova, Pa., USA. The in vitro MICs of test compounds were determined by a standard agar dilution method. A stock drug solution of each analog was prepared in the preferred solvent, usually DMSO:H2O (1:3). Serial 2-fold dilutions of each sample are made using 1.0 ml aliquots of sterile distilled water. To each 1.0 ml aliquot of drug was added 9 ml of molten Mueller Hinton agar medium. The drug-supplemented agar was mixed, poured into 15×100 mm petri dishes, and allowed to solidify and dry prior to inoculation. Vials of each of the test organisms are maintained frozen in the vapor phase of a liquid nitrogen freezer. Test cultures are grown overnight at 35° C. on the medium appropriate for the organism. Colonies are harvested with a sterile swab, and cell suspensions are prepared in Trypticase Soy broth (TSB) to equal the turbidity of a 0.5 McFarland standard. A 1:20 dilution of each suspension was made in TSB. The plates containing the drug supplemented agar are inoculated with a 0.001 ml drop of the cell suspension using a Steers replicator, yielding approximately 10^4 to 10^5 cells per spot. The plates are incubated overnight at 35° C. Following incubation the Minimum Inhibitory Concentration (MIC μg/ml), the lowest concentration of drug that inhibits visible growth of the organism, was read and recorded.

| Structure (SMILES) | MIC |
| --- | --- |
| O=C(Nc1ccc(-c2cccs2)cc1C(=O)O)c1ccc(S(=O)(=O)N2CCc3ccccc32)cc1 | 4 µg/mL (≈ 7.93 µM) |
| CCCC(=O)c1ccc(NC(=O)c2ccc(S(=O)(=O)N3CCc4ccc(Cl)cc43)cc2)c(C(=O)O)c1 | 16 µg/mL (≈ 30.4 µM) |
| O=C(Nc1ccc(C(=NO)c2ccccc2)cc1C(=O)O)c1ccc(S(=O)(=O)N2CCc3ccccc32)cc1 | 128 µg/mL (≈ 236 µM) |
| CCON=C(c1ccccc1)c1ccc(NC(=O)c2ccc(S(=O)(=O)N3CCc4ccccc43)cc2)c(C(=O)O)c1 | 16 µg/mL (≈ 28.1 µM) |
| CCON=C(c1ccc(NC(=O)c2ccc(S(=O)(=O)N3CCc4ccccc43)cc2)c(C(=O)O)c1)C(C)C | 64 µg/mL (≈ 119 µM) |
| O=C(Nc1ccc(I)cc1C(=O)O)c1ccc(S(=O)(=O)N2CCSC2)cc1 | 32 µg/mL (≈ 61.7 µM) |
| O=C(Nc1ccc(I)cc1C(=O)O)c1ccc(S(=O)(=O)N2CC=CC2)cc1 | 32 µg/mL (≈ 64.2 µM) |
| N#CC1(c2ccccc2)CCN(S(=O)(=O)c2ccc(C(=O)Nc3ccc(I)cc3C(=O)O)cc2)CC1 | 4 µg/mL (≈ 6.5 µM) |
| COC(=O)CCCC(=O)c1ccc(NC(=O)c2cccc(S(=O)(=O)N3CCc4ccc(Cl)cc43)c2)c(C(=O)O)c1 | 64 µg/mL (≈ 109 µM) |
| O=C(Nc1ccc(C(=O)C2CCCC2)cc1C(=O)O)c1cccc(S(=O)(=O)N2CCc3ccc(Cl)cc32)c1 | 32 µg/mL (≈ 57.9 µM) |
| COC(=O)CCCC(=O)c1ccc(NC(=O)c2cccc(S(=O)(=O)N3CCSC3)c2)c(C(=O)O)c1 | > 128 µg/mL |
| O=C(Nc1ccc(I)cc1C(=O)O)c1cccc(S(=O)(=O)N2CCSC2)c1 | 8 µg/mL (≈ 15.4 µM) |
| O=C(Nc1ccc(I)cc1C(=O)O)c1cccc(S(=O)(=O)N2CC=CC2)c1 | 8 µg/mL (≈ 16.1 µM) |
| O=C(Nc1ccc(I)cc1C(=O)O)c1cccc(S(=O)(=O)N2CCN(c3ccccn3)CC2)c1 | 32 µg/mL (≈ 54 µM) |
| CCCCCC(=O)c1ccc(NC(=O)c2ccc(S(=O)(=O)N3CCc4ccc(Cl)cc43)cc2)c(C(=O)O)c1 | 8 µg/mL (≈ 14.4 µM) |
| O=C(Nc1ccc(C(=O)C2CCCC2)cc1C(=O)O)c1ccc(S(=O)(=O)N2CCc3ccc(Cl)cc32)cc1 | 16 µg/mL (≈ 28.9 µM) |
| O=C(Nc1ccc(Cl)cc1C(=O)O)c1cccc(I)c1 | 8 µg/mL (≈ 19.9 µM) |
| O=C(Nc1ccc(Cl)cc1C(=O)O)c1ccc(I)cc1 | 2 µg/mL (≈ 4.98 µM) |
| O=C(Nc1ccc(Cl)cc1C(=O)O)c1ccc(I)c(I)c1 | 2 µg/mL (≈ 3.79 µM) |
| O=C(Nc1ccc(Cl)cc1C(=O)O)c1ccccc1 | 128 µg/mL (≈ 464 µM) |
| O=C(Nc1ccc(Cl)cc1C(=O)O)c1ccc(C(=O)c2ccccc2)cc1 | 4 µg/mL (≈ 10.5 µM) |
| CCCCCC(=O)c1cccc(C(=O)Nc2ccc(Cl)cc2C(=O)O)c1 | 8 µg/mL (≈ 21.4 µM) |

| Structure (SMILES) | MIC |
| --- | --- |
| CCCCCC(=O)c1ccc(C(=O)Nc2ccc(Cl)cc2C(=O)O)cc1 | 4 µg/mL (≈ 10.7 µM) |
| COc1cc(C(=O)c2cccc(C(=O)Nc3ccc(Cl)cc3C(=O)O)c2)cc(OC)c1OC | 32 µg/mL (≈ 68.1 µM) |
| O=C(Nc1ccc(Cl)cc1C(=O)O)c1cccc(C(=O)c2ccc(Cl)cc2)c1 | 4 µg/mL (≈ 9.66 µM) |
| O=C(Nc1ccc(Cl)cc1C(=O)O)c1cccc(C(=O)C2CCCC2)c1 | 8 µg/mL (≈ 21.5 µM) |
| COc1ccc(C(=O)c2cccc(C(=O)Nc3ccc(Cl)cc3C(=O)O)c2)cc1 | 8 µg/mL (≈ 19.5 µM) |
| O=C(Nc1ccc(Cl)cc1C(=O)O)c1cccc(C(=O)c2ccco2)c1 | 8 µg/mL (≈ 21.6 µM) |
| O=C(COc1ccc(Cl)cc1)c1cccc(C(=O)Nc2ccc(Cl)cc2C(=O)O)c1 | 8 µg/mL (≈ 18 µM) |
| CN(C)c1ccc(C(=O)c2cccc(C(=O)Nc3ccc(Cl)cc3C(=O)O)c2)cc1 | 4 µg/mL (≈ 9.46 µM) |
| O=C(Nc1ccc(Cl)cc1C(=O)O)c1cccc(C(=O)c2ccc3c(c2)OCO3)c1 | 4 µg/mL (≈ 9.44 µM) |
| COc1ccc(C(=O)c2ccc(C(=O)Nc3ccc(Cl)cc3C(=O)O)cc2)cc1 | 2 µg/mL (≈ 4.88 µM) |
| COc1cc(C(=O)c2ccc(C(=O)Nc3ccc(Cl)cc3C(=O)O)cc2)cc(OC)c1OC | 4 µg/mL (≈ 8.51 µM) |
| O=C(COc1ccc(Cl)cc1)c1ccc(C(=O)Nc2ccc(Cl)cc2C(=O)O)cc1 | 4 µg/mL (≈ 9 µM) |
| O=C(Nc1ccc(Cl)cc1C(=O)O)c1ccc(C(=O)c2ccc(Cl)cc2)cc1 | 4 µg/mL (≈ 9.66 µM) |
| Cl.NCc1ccc(C(=O)Nc2ccc(Br)cc2C(=O)O)cc1S(=O)(=O)N1CCc2ccccc21 | > 128 µg/mL |
| O=C(Nc1ccc(Cl)cc1C(=O)O)c1ccc(C(=O)c2ccco2)cc1 | 4 µg/mL (≈ 10.8 µM) |
| CCCCCOc1cccc(C(=O)Nc2ccc(Br)cc2C(=O)O)c1 | 8 µg/mL (≈ 19.7 µM) |
| O=C(Nc1ccc(Cl)cc1C(=O)O)c1ccc(C(=O)c2ccc3c(c2)OCO3)cc1 | 2 µg/mL (≈ 4.72 µM) |
| CC(C)Oc1cccc(C(=O)Nc2ccc(Br)cc2C(=O)O)c1 | 2 µg/mL (≈ 5.29 µM) |
| CN(C)c1ccc(C(=O)c2ccc(C(=O)Nc3ccc(Cl)cc3C(=O)O)cc2)cc1 | 16 µg/mL (≈ 37.8 µM) |
| CCCCCOc1ccc(C(=O)Nc2ccc(Br)cc2C(=O)O)cc1 | 16 µg/mL (≈ 39.4 µM) |
| CC(C)Oc1ccc(C(=O)Nc2ccc(Br)cc2C(=O)O)cc1 | 64 µg/mL (≈ 169 µM) |
| Nc1ccc(CCNS(=O)(=O)c2ccc(C(=O)Nc3ccc(Br)cc3C(=O)O)cc2)cc1 | 64 µg/mL (≈ 123 µM) |

| Structure (SMILES) | MIC |
| --- | --- |
| C=CCOc1cccc(C(=O)Nc2ccc(Br)cc2C(=O)O)c1 | 8 µg/mL (≈ 21.3 µM) |
| COc1ccc(C(=O)Nc2ccc(Br)cc2C(=O)O)cc1S(=O)(=O)NC1Cc2ccccc2C1 | 2 µg/mL (≈ 3.67 µM) |
| O=C(Nc1ccc(Br)cc1C(=O)O)c1ccc(OCc2ccccc2)cc1 | 16 µg/mL (≈ 37.5 µM) |
| O=C(Nc1ccc(Br)cc1C(=O)O)c1cccc(S(=O)(=O)NC2Cc3ccccc3C2)c1 | 1 µg/mL (≈ 1.94 µM) |
| Cc1ccc(C(=O)Nc2ccc(Br)cc2C(=O)O)cc1S(=O)(=O)NCCc1ccc(N)cc1 | 8 µg/mL (≈ 15 µM) |
| Cc1ccc(C(=O)Nc2ccc(Br)cc2C(=O)O)cc1S(=O)(=O)N1CCN(c2cccc(C(F)(F)F)c2)CC1 | 16 µg/mL (≈ 25.5 µM) |
| Cc1ccc(C(=O)Nc2ccc(Br)cc2C(=O)O)cc1S(=O)(=O)NC1Cc2ccccc2C1 | 0.25 µg/mL (≈ 0.472 µM) |
| O=C(Nc1ccc(Br)cc1C(=O)O)c1cccc(S(=O)(=O)N2CCN(c3cccc(C(F)(F)F)c3)CC2)c1 | 16 µg/mL (≈ 26.1 µM) |
| O=C(Nc1ccc(Br)cc1C(=O)O)c1cc(S(=O)(=O)NC2Cc3ccccc3C2)ccc1Br | 0.25 µg/mL (≈ 0.421 µM) |
| COc1ccc(C(=O)Nc2ccc(Br)cc2C(=O)O)cc1S(=O)(=O)N1CCN(c2ccc(Cl)cc2)CC1 | 8 µg/mL (≈ 13.1 µM) |
| CCN(Cc1ccncc1)S(=O)(=O)c1ccc(C)c(C(=O)Nc2ccc(Br)cc2C(=O)O)c1 | > 128 µg/mL |
| COc1cc(COc2cccc(C(=O)Nc3ccc(Br)cc3C(=O)O)c2)cc(OC)c1 | 16 µg/mL (≈ 32.9 µM) |
| COC(=O)C(Oc1ccc(C(=O)Nc2ccc(Br)cc2C(=O)O)cc1)c1ccccc1 (stereo not drawn) | 64 µg/mL (≈ 132 µM) |
| O=C(NCCOc1ccc(C(=O)Nc2ccc(Br)cc2C(=O)O)cc1)OCc1ccccc1 | 64 µg/mL (≈ 125 µM) |
| COc1cc(COc2ccc(C(=O)Nc3ccc(Br)cc3C(=O)O)cc2)cc(OC)c1 | 8 µg/mL (≈ 16.5 µM) |
| Cc1ccc(S(=O)(=O)Nc2cccc(C(=O)Nc3ccc(Br)cc3C(=O)O)c2)cc1 | 0.5 µg/mL (≈ 1.02 µM) |
| Cc1ncsc1CCOc1ccc(C(=O)Nc2ccc(Br)cc2C(=O)O)cc1 | 32 µg/mL (≈ 69.4 µM) |
| O=C(Nc1ccc(Br)cc1C(=O)O)c1ccc(OCCN2CCCC2=O)cc1 | > 128 µg/mL |
| O=C(Nc1ccc(Cl)cc1C(=O)O)c1ccc(C(=NOCc2ccccc2)c2ccco2)cc1 | 32 µg/mL (≈ 67.4 µM) |
| O=C(Nc1ccc(Br)cc1C(=O)O)c1ccc(OCC2CCOC2)cc1 (stereo not drawn) | 128 µg/mL (≈ 305 µM) |
| O=C(Nc1ccc(Cl)cc1C(=O)O)c1cccc(C(NCc2cccc(Cl)c2)c2ccco2)c1 (stereo not drawn) | 8 µg/mL (≈ 16.1 µM) |
| O=C(Nc1ccc(Cl)cc1C(=O)O)c1cccc(C(NCc2cccc(Cl)c2)c2ccccc2)c1 (stereo not drawn) | 16 µg/mL (≈ 31.7 µM) |

| Structure (SMILES) | MIC |
| --- | --- |
| CON=C(c1cccc(C(=O)Nc2ccc(Cl)cc2C(=O)O)c1)c1ccco1 | 16 µg/mL (≈ 40.1 µM) |
| O=C(Nc1ccc(Cl)cc1C(=O)O)c1cccc(C(NC2CCc3ccccc32)c2ccccc2)c1 (stereo not drawn) | 16 µg/mL (≈ 32.2 µM) |
| CCC(CC)C(=O)c1cccc(C(=O)Nc2ccc(Cl)cc2C(=O)O)c1 | 8 µg/mL (≈ 21.4 µM) |
| CCCNC(c1cccc(C(=O)Nc2ccc(Cl)cc2C(=O)O)c1)c1ccco1 (stereo not drawn) | 16 µg/mL (≈ 38.8 µM) |
| O=C(Nc1ccc(Cl)cc1C(=O)O)c1cccc(C(=O)C2CCOC2)c1 (stereo not drawn) | 128 µg/mL (≈ 342 µM) |
| CCCNC(c1ccccc1)c1cccc(C(=O)Nc2ccc(Cl)cc2C(=O)O)c1 (stereo not drawn) | 8 µg/mL (≈ 18.9 µM) |
| O=C(Nc1ccc(Cl)cc1C(=O)O)c1cccc(C(=NO)c2cccnc2)c1 | 4 µg/mL (≈ 10.1 µM) |
| O=C(Nc1ccc(Cl)cc1C(=O)O)c1cccc(C(NC2CCCC2)c2ccccc2)c1 (stereo not drawn) | 4 µg/mL (≈ 8.91 µM) |
| CCCNC(c1cccc(C#N)c1)c1cccc(C(=O)Nc2ccc(Cl)cc2C(=O)O)c1 (stereo not drawn) | 8 µg/mL (≈ 17.9 µM) |
| O=C(Nc1ccc(Cl)cc1C(=O)O)c1cccc(C(=O)C2CCCO2)c1 (stereo not drawn) | 64 µg/mL (≈ 171 µM) |
| CCCNC(c1cccc(C(=O)Nc2ccc(Cl)cc2C(=O)O)c1)c1cccc(S(C)(=O)=O)c1 (stereo not drawn) | 32 µg/mL (≈ 63.9 µM) |
| CS(=O)(=O)c1cccc(C(=O)c2cccc(C(=O)Nc3ccc(Cl)cc3C(=O)O)c2)c1 | 16 µg/mL (≈ 34.9 µM) |
| CCC(CC)C(=O)c1ccc(C(=O)Nc2ccc(Cl)cc2C(=O)O)cc1 | 4 µg/mL (≈ 10.7 µM) |
| O=C(Nc1ccc(Cl)cc1C(=O)O)c1cccc(C(=NO)C2CCCO2)c1 (stereo not drawn) | 16 µg/mL (≈ 41.2 µM) |
| O=C(Nc1ccc(Cl)cc1C(=O)O)c1ccc(C(=O)c2c[nH]c3ccccc23)cc1 | 8 µg/mL (≈ 19.1 µM) |
| CCCNC(c1cccnc1)c1cccc(C(=O)Nc2ccc(Cl)cc2C(=O)O)c1 (stereo not drawn) | 8 µg/mL (≈ 18.9 µM) |
| N#Cc1cccc(C(=NO)c2ccc(C(=O)Nc3ccc(Cl)cc3C(=O)O)cc2)c1 | 8 µg/mL (≈ 19.1 µM) |
| O=C(Nc1ccc(Cl)cc1C(=O)O)c1ccc(C(=NO)c2cccnc2)cc1 | 32 µg/mL (≈ 80.8 µM) |
| CCOCC(=O)c1ccc(C(=O)Nc2ccc(Cl)cc2C(=O)O)cc1 | 16 µg/mL (≈ 44.2 µM) |
| CS(=O)(=O)c1cccc(C(=NO)c2ccc(C(=O)Nc3ccc(Cl)cc3C(=O)O)cc2)c1 | 16 µg/mL (≈ 33.8 µM) |
| CS(=O)(=O)c1cccc(C(=O)c2ccc(C(=O)Nc3ccc(Cl)cc3C(=O)O)cc2)c1 | 32 µg/mL (≈ 69.9 µM) |
